Source: article PMC6429297, “Novel 8-Substituted Coumarins That Selectively Inhibit Human Carbonic Anhydrase IX and XII” (International Journal of Molecular Sciences, 2019)
Like-named read-outs stand apart in the source and are kept apart here.

How the values were obtained:
hCA XII = hCA XII (Homo sapiens, UniProt O43570); assay: stopped-flow CO2 hydrase assay, hCA XII
Protocol: (§1) An Applied Photophysics stopped-flow instrument has been used for assaying the CA catalyzed CO2 hydration activity [24]. […] The uncatalyzed rates were determined in the same manner and subtracted from the total observed rates. Stock solutions of inhibitor (0.1 mM) were prepared in distilled-deionized water and dilutions up to 0.005 nM were done thereafter with the assay buffer. Inhibitor and enzyme solutions were preincubated together for 6 hours at room temperature prior to assay, in order to allow for the formation of the E-I complex. The inhibition constants were obtained by nonlinear least-squares methods using PRISM 3 (GraphPad Software, San Diego, CA, USA) and the Cheng–Prusoff equation, as reported by Maresca et al. [14], and represent the mean from at least three different determinations. All CA isoforms were recombinant ones obtained in-house.

hCA I = hCA I (Homo sapiens, UniProt P00915); assay: stopped-flow CO2 hydrase assay, hCA I
Protocol: as §1

hCA IX = hCA IX (Homo sapiens, UniProt Q16790); assay: stopped-flow CO2 hydrase assay, hCA IX; details: recombinant hCA IX, 6 h preincubation, mean from three assays, errors ±5–10%
Protocol: as §1

hCA II = hCA II (Homo sapiens, UniProt P00918); assay: stopped-flow CO2 hydrase assay, hCA II
Protocol: as §1

[1] = design: method as in PMID 20024932; details: hepatotoxic effect of coumarin; cited from earlier work

Sequence of hCA XII (O43570 25-354): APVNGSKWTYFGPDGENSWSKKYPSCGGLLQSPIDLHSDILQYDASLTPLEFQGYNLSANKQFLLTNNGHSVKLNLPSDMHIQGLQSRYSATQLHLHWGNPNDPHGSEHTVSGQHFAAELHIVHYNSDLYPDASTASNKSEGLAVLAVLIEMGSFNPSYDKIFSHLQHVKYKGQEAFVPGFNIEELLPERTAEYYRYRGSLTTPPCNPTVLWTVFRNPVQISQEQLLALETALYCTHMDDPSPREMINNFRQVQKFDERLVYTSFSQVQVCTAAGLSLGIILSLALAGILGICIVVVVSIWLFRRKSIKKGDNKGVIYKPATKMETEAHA
Sequence of hCA I (P00915 whole entry): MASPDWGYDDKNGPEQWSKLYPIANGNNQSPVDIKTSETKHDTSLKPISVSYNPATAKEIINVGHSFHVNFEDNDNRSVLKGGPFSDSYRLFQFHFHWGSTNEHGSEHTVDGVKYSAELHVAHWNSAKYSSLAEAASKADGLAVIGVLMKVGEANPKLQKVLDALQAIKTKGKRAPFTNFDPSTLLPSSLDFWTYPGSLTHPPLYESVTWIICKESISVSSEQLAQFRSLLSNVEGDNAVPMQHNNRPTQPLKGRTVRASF

Structure (SMILES) | Ki (hCA XII) [nM] | Ki (hCA I) [nM] | Ki (hCA IX; Ki (nM) hCA IX) [nM] | Ki (hCA II) [nM] | Ki (hCA IX; read-out: Ki (nM) hCA IX) [nM] | tolerable daily intake [1] [mg/kg body weight]
Cc1cc(=O)oc2c(CN3CCN(c4ccc(F)cc4)CC3)c(O)ccc12 [Compound 9, 8-[(4-(4-Fluorophenyl)piperazin-1-yl)methyl]-7-hydroxy-4-methylchromen-2-one] | 8.1 | > 10000 | 92.8 | > 10000 | – | –
Cc1cc(=O)oc2c(CN3CCN(Cc4c(O)ccc5c(C)cc(=O)oc45)CC3)c(O)ccc12 [Compound 2, 1,4-bis[(7-Hydroxy-4-methylcoumarin-8-yl)methyl] piperazine] | 8.5 | > 10000 | 67.5 | > 10000 | – | –
C=CCN1CCN(Cc2c(O)ccc3c(C)cc(=O)oc23)CC1 [Compound 6, 8-(4-Allylpiperazin-1-ylmethyl)-7-hydroxy-4-methylchromen-2-one] | 5.6 | > 10000 | – | > 10000 | 27.1 | –
Cc1cc(=O)oc2c(CN3CCN(C)CC3)c(O)ccc12 [Compound 3, 7-Hydroxy-4-methyl-8-(4-methylpiperazin-1-ylmethyl)chromen-2-one] | 9.6 | > 10000 | 88.7 | > 10000 | – | –
Cc1cc(=O)oc2c(CN3CCN(c4ccccc4F)CC3)c(O)ccc12 [Compound 12, 8-[4-(2-Fluorophenyl)piperazin-1-ylmethyl]-7-hydroxy-4-methylchromen-2-one] | 26.4 | > 10000 | 121 | > 10000 | – | –
Cc1cc(=O)oc2c(CN3CCN(c4ccc(Cl)cc4)CC3)c(O)ccc12 [Compound 8, 8-[4-(4-Chlorophenyl)piperazin-1-ylmethyl]-7-hydroxy-4-methylchromen-2-one] | 8.9 | > 10000 | 190 | > 10000 | – | –
Cc1cc(=O)oc2c(CN3CCN(CCO)CC3)c(O)ccc12 [Compound 5, 7-Hydroxy-8-[4-(2-hydroxyethyl)piperazin-1-ylmethyl]-4-methylchromen-2-one] | 7.1 | > 10000 | 295 | > 10000 | – | –
Cc1cc(=O)oc2c(CN3CCN(Cc4ccc5c(c4)OCO5)CC3)c(O)ccc12 [Compound 13, 8-(4-Benzo[1,3]dioxol-5-ylmethyl-piperazin-1-ylmethyl)-7-hydroxy-4-methyl-chromen-2-one] | 8.5 | > 10000 | 76.8 | > 10000 | – | –
CCN1CCN(Cc2c(O)ccc3c(C)cc(=O)oc23)CC1 [Compound 4, 8-(4-Ethylpiperazin-1-ylmethyl)-7-hydroxy-4-methylchromen-2-one] | 6.4 | > 10000 | 32 | > 10000 | – | –
O=c1ccc2ccccc2o1 [coumarin] | – | – | – | – | – | 0.1
Cc1cc(=O)oc2c(CN3CCN(c4ccccc4)CC3)c(O)ccc12 [Compound 7, 7-Hydroxy-4-methyl-8-(4-phenylpiperazin-1-ylmethyl)chromen-2-one] | 7.7 | > 10000 | 115 | > 10000 | – | –
Cc1cc(=O)oc2cc(O)ccc12 [Compound 1, 7-Hydroxy-4-methylchromen-2-one] | 5.8 | > 10000 | 32.1 | > 10000 | – | –
Cc1cc(=O)oc2c(CN3CCN(c4ccc(Br)cc4)CC3)c(O)ccc12 [Compound 10, 7-Hydroxy-8-[4-(bromophenyl)-piperazin-1-ylmethyl]-4-methylchromen-2-one] | 9.4 | > 10000 | 162 | > 10000 | – | –
Cc1ccc(N2CCN(Cc3c(O)ccc4c(C)cc(=O)oc34)CC2)cc1 [Compound 11, 7-Hydroxy-4-methyl-8-(4-p-tolyl-piperazin-1-ylmethyl)chromen-2-one] | 9.6 | > 10000 | 308 | > 10000 | – | –
